{"source": "patent US11667630B2", "about": "“Nitrogen-containing 6-membered cyclic compound” (Asahi Kasei Pharma Corporation, priority 2017, dated 2023)", "key": {"[1]": {"molecular_target": "human EP4 receptor (Homo sapiens, UniProt P35408)", "sequence (P35408 whole entry)": "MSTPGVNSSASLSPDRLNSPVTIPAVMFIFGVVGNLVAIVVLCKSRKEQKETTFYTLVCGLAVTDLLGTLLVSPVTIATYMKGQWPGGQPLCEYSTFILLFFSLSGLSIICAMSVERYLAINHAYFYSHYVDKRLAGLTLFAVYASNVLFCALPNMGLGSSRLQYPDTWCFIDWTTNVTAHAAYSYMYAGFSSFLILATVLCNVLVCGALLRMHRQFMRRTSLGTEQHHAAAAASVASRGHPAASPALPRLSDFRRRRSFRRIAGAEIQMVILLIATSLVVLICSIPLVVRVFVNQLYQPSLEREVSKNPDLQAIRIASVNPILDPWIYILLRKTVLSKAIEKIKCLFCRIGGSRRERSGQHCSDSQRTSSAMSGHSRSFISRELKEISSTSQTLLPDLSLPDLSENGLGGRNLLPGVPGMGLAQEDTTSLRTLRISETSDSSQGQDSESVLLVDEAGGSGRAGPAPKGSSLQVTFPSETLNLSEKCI", "assay": "Measurement of EP4 agonist activity (cAMP production)", "assay_type": "cell-based", "set-up": "expressed in transfected cells; host or cells: HEK293", "settings": "cAMP production in HEK293 cells stably expressing human EP4 receptor; average values where measured two or more times", "protocol": "In order to investigate EP4 receptor agonist activity of the compounds of the present invention, production of cAMP was measured in HEK293 cells that were made to stably express the human EP4 receptor.\nBy using Refseq Database, prostaglandin E receptor was searched for. As a result, gene information of human EP4 (NM_000958) receptor was obtained. On the basis of this sequence information, the human EP4 receptor gene was cloned by PCR in a conventional manner using human cDNA as the template, and HEK293 cells that were made to stably express the human EP4 receptor were established. When cryopreserved cells of this strain were thawed and used, cells subcultured three times or more within a certain period of time (about 1 to 2 weeks) by using Dulbecco's Modified Eagle's Medium (Dulbecco's Modified Eagle's Medium may be henceforth abbreviated as DMEM) containing 10% FBS, 50 units each of penicillin and streptomycin were used. The subcultured cells were inoculated in wells of a poly-D-lysine-coated 96-well plate at a density of 2×10^4 to 2.5×10^4 cells/well, and cultured for one day. The medium in the wells was removed by suction, then DMEM (80 μL) was added to each well, and incubation was performed at 37° C. for 15 minutes. […] The reaction was allowed at 37° C. for 30 minutes, then the medium was removed by suction, Assay/Lysis Buffer (100 μL) contained in cAMP Screen Kit (produced by Applied Biosystems) was added to terminate the reaction. Then, the reaction mixture was incubated at 37° C. for 30 minutes to prepare a sample for quantification of cAMP, and the amount of cAMP in the sample was quantified according to the method indicated in cAMP Screen Kit. By non-linear regression of the compound concentration and the amount of cAMP, the concentration of the compound required for increasing cAMP to 50% of the maximum increase (EC50 value) was calculated by using the Kaleida Graph."}, "[2]": {"system": "dog femur", "assay": "Neo-osteogenesis action in dog femur", "assay_type": "in vivo", "settings": "beagle dogs, four weeks", "protocol": "In order to investigate an osteogenesis-promoting action of the compounds of the present invention, for influence of administration of microspheres containing a test compound in the vicinity of the femur of dog, osteogenesis-promoting action was evaluated by measuring new bone formed after the administration.\nNine to eleven months old female beagle dogs ([…] LABES) were anesthetized by administration of a 1:1 mixture of ketamine hydrochloride (Ketalar 500 mg, Daiichi Sankyo Propharma Co., Ltd.) and xylazine (Selactar 2% Injection, Bayer Yakuhin, Ltd.) at a dose of about 0.5 mL/kg, and isoflurane listed in Japanese Pharmacopoeia (Elucaine, Mylan Pharmaceutical) was used for maintenance anesthesia, which was administered with an inhaler IMPAC6 (VetEquip Inc.). After hair of the femoral region of the right hind leg was shaved, and disinfection treatment was performed, 350 μL of a microsphere suspension obtained by suspending microspheres (prepared according to the method of Preparation Example 1 or 2) containing a test compound (compound of Example 23) in a CMC solution was transdermally administered around the periosteum of the femoral diaphysis by using a 1-mL injection syringe and a 21G injection needle. The doses of the test compound were 0.01, 0.1, 1.0, 10, and 100 μg/site, and the aforementioned microspheres were used in an amount corresponding to each dose. As a control group, a drug liquid obtained by suspending the microspheres not containing the test compound in 350 μL of the CMC solution alone was administered. Four weeks after the administration of the drug liquid, the animals were euthanized by bleeding under pentobarbital sodium (Somnopentyl) anesthesia. The femurs of both sides were extracted, immersed in a 10% neutral buffered formalin solution, and stored. The bone mineral content of the femur was measured by using Discovery X-ray bone density analyzer (produced by Toyo Medic). The test was performed with the groups each consisting of 4 dogs"}, "[3]": {"system": "rat femur closed fracture model", "assay": "Fracture healing-promoting action in rat femur closed fracture model", "assay_type": "in vivo", "settings": "SD rats; for Bone union rate after 25 days (%): judged on soft X-ray images; for Maximum torque (N · cm): torsion test of femur four weeks after fracture", "description": "In order to investigate fracture healing-promoting action of the compounds of the present invention, influence of injection of microspheres containing a test compound at a fracture site of a rat femur closed fracture model was confirmed.\nThirteen weeks old female SD rats (Japan SLC) were fixed in the side lying position under triple anesthesia (medetomidine hydrochloride, midazolam, and butorphanol tartrate). After hair of a region from the left knee to the femoral region was shaved with a hair clipper, and disinfection treatment was performed with povidone-iodine listed in Japanese Pharmacopoeia (Isodine solution for animals, 20 mg of povidone-iodine listed in Japanese Pharmacopoeia in 1 mL, Meiji Seika Pharma), the skin of the knee part and the medial great muscle of the lateral part of the patella were excised, and the patella was shifted from the femoral head. A drill bit attached to a trephine was put on the intercondylar fossa of the exposed femoral head, and manually rotated to make a bore. A Kirschner wire (Mizuho Co., Ltd.) having a diameter of 1.2 mm preliminarily cut in a length of 31 mm was inserted into the medullary cavity of the femur through the bore. Then, the left femoral region was fixed on a three-point bending test jig of a small desktop universal testing machine (EZ Test, Shimadzu Corp.), and closed fracture of the femoral diaphyseal was caused by giving a dynamic load. Whether fracture was successfully introduced or not was confirmed by confirming generation of a complete transverse fracture in the femoral diaphyseal on an X-ray image obtained with a soft X-ray generator (M-100W, Softex) and a digital X-ray sensor (NX-04, RF Co., Ltd.). A microsphere suspension obtained by suspending microspheres (prepared according to the method of Preparation Example 3) containing a test compound (compound of Example 23) in a CMC solution was injected into the fracture part in a volume of 100 μL as the administration volume (containing 100 or 300 μg of the test compound). As the control group, a drug liquid obtained by suspending the microspheres not containing the aforementioned test compound in the CMC solution (100 μL) alone was administered. One, two, and three weeks after the generation of fracture, soft X-ray images were taken under isoflurane anesthesia, and the areas of the callus part in the X-ray images were quantified by using Image J. Four weeks after the generation of fracture, soft X-ray images were taken under triple anesthesia, the animals were fixed in the supine position, and euthanized by bleeding, and the left femurs were extracted. […] The femur samples were cryopreserved until implementation of a bone strength test, and torsional strength was measured on the test day by using a bone strength measurement apparatus (MZ-500S, Maruto Instrument Co., Ltd.)."}, "[4]": {"settings": "microspheres (Preparation Example 3) containing compound of Example 23, 100 μg injected into fracture part"}, "[5]": {"settings": "microspheres (Preparation Example 3) containing compound of Example 23, 300 μg injected into fracture part"}, "[6]": {"settings": "microspheres containing compound of Example 23, 100 μg"}, "[7]": {"settings": "microspheres containing compound of Example 23, 300 μg"}}}
{"smiles": "O=C(O)c1ccc(CCN2C(=O)SCCN2CC[C@@H](O)Cc2cccc(C#Cc3ccsc3)c2)s1", "note": "[Example 23, (S)-5-(2-(4-(3-Hydroxy-4-(3-(thiophen-3-ylethynyl)phenyl)butyl)-2-oxo-1,3,4-thiadiazinan-3-yl)ethyl)thiophene-2-carboxylic acid]", "values": [{"measurement": "EC50", "setting": "[1]", "result": 0.033, "unit": "nM"}, {"measurement": "Bone mineral content of femur 1/3 center region (g) Left femur (no administration of compound)", "setting": "[2]; microspheres containing compound of Example 23, 0.01 μg/site at right femur", "result": "2.9 ± 0.4", "unit": "g"}, {"measurement": "Bone mineral content of femur 1/3 center region (g) Right femur (administered with compound)", "setting": "[2]; microspheres containing compound of Example 23, 0.01 μg/site", "result": "2.9 ± 0.4", "unit": "g"}, {"measurement": "Bone mineral content of femur 1/3 center region (g) Left femur (no administration of compound)", "setting": "[2]; microspheres containing compound of Example 23, 0.1 μg/site at right femur", "result": "2.6 ± 0.1", "unit": "g"}, {"measurement": "Bone mineral content of femur 1/3 center region (g) Right femur (administered with compound)", "setting": "[2]; microspheres containing compound of Example 23, 0.1 μg/site", "result": "2.7 ± 0.2", "unit": "g"}, {"measurement": "Bone mineral content of femur 1/3 center region (g) Left femur (no administration of compound)", "setting": "[2]; microspheres containing compound of Example 23, 1.0 μg/site at right femur", "result": "3.0 ± 0.1", "unit": "g"}, {"measurement": "Bone mineral content of femur 1/3 center region (g) Right femur (administered with compound)", "setting": "[2]; microspheres containing compound of Example 23, 1.0 μg/site", "result": "4.1 ± 0.4", "unit": "g"}, {"measurement": "Bone mineral content of femur 1/3 center region (g) Left femur (no administration of compound)", "setting": "[2]; microspheres containing compound of Example 23, 10 μg/site at right femur", "result": "2.8 ± 0.3", "unit": "g"}, {"measurement": "Bone mineral content of femur 1/3 center region (g) Right femur (administered with compound)", "setting": "[2]; microspheres containing compound of Example 23, 10 μg/site", "result": "6.4 ± 0.7", "unit": "g"}, {"measurement": "Bone mineral content of femur 1/3 center region (g) Left femur (no administration of compound)", "setting": "[2]; microspheres containing compound of Example 23, 100 μg/site at right femur", "result": "2.7 ± 0.4", "unit": "g"}, {"measurement": "Bone mineral content of femur 1/3 center region (g) Right femur (administered with compound)", "setting": "[2]; microspheres containing compound of Example 23, 100 μg/site", "result": "8.2 ± 1.1", "unit": "g"}, {"measurement": "Callus area (mm^2) One week after fracture", "setting": "[3]; [4]", "result": "5.24 ± 2.87", "unit": "mm^2"}, {"measurement": "Callus area (mm^2) Three weeks after fracture", "setting": "[3]; [4]", "result": "35.9 ± 6.3", "unit": "mm^2"}, {"measurement": "Callus area (mm^2) Two weeks after fracture", "setting": "[3]; [4]", "result": "28.6 ± 4.7", "unit": "mm^2"}, {"measurement": "Callus area (mm^2) One week after fracture", "setting": "[3]; [5]", "result": "6.01 ± 2.75", "unit": "mm^2"}, {"measurement": "Callus area (mm^2) Three weeks after fracture", "setting": "[3]; [5]", "result": "33.8 ± 6.8", "unit": "mm^2"}, {"measurement": "Callus area (mm^2) Two weeks after fracture", "setting": "[3]; [5]", "result": "28.9 ± 3.8", "unit": "mm^2"}, {"measurement": "Bone union rate after 25 days (%)", "setting": "[3]; [6]", "result": 90.0, "unit": "%"}, {"measurement": "Maximum torque (N · cm)", "setting": "[3]; [6]", "result": "20.4 ± 7.1", "unit": "N · cm"}, {"measurement": "Bone union rate after 25 days (%)", "setting": "[3]; [7]", "result": 85.7, "unit": "%"}, {"measurement": "Maximum torque (N · cm)", "setting": "[3]; [7]", "result": "26.3 ± 11.7", "unit": "N · cm"}]}
